Reference: publication PMC4061482 (Frontiers in Oncology, 2014)
Where two headings read alike, the source gives them in different places.

Experiments:
AKR1C3 [1] = target: T1, AKR1C3 (Homo sapiens, UniProt P42330); assay: 11β-PGF2α formation from PGD2 by ELISA in the cell line panel; assay type: cell-based; settings: 10 μM; all cell lines that expressed AKR1C3; 28 nM PGD2, 24 h
T1 sequence (P42330 1-323): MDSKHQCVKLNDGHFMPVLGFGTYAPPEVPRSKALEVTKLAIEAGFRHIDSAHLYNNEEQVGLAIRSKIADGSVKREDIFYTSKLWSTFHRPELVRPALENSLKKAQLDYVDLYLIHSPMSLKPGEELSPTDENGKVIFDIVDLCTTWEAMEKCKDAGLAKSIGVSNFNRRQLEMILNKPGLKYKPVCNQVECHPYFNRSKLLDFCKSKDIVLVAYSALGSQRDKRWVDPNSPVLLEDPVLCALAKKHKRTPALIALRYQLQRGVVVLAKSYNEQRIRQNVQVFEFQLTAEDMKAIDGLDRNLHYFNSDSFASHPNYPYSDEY
Experimental: (§1) Cells were seeded into 96-well plates in hormone-deprived media at appropriate seeding densities [10,000–50,000 cells per well for all lines except HCC1500 (100,000 cells per well; 11β-PGF2α ELISA)] to reach approximately 70% confluency at the time of sampling and were left to settle for 24 h at 37°C and 5% CO2. Inhibitors were added to the plates at single or multiple concentrations for 1 h prior to administration of equimolar (28 nM) concentrations of PGD2 (11β-PGF2α ELISA), androstenedione (testosterone ELISA), or estrone (17β-estradiol ELISA). The plates were returned to the incubator for a further 24 h before cell supernatant was removed for analysis of 11β-PGF2α, testosterone, or 17β-estradiol by ELISA as per manufacturer’s instructions (11β-PGF2α and testosterone ELISA, Cayman Chemical Company; 17β-estradiol ELISA, Oxford Biomedical Research), and cells were fixed for sulforhodamine B analysis as described below. Each ELISA plate was read at a wavelength of 405 nm (11β-PGF2α and testosterone) or 650 nM (17β-estradiol) on a SpectraMax M2 microplate reader (Molecular Devices) and quantitated against a standard curve generated in hormone-deprived culture media. […]
The PGD2 11-ketoreductase activity of AKR1C3 was determined by stimulating the cell line panel with PGD2 for 24 h, then detecting 11β-PGF2α levels by ELISA.

HCT116 AKR1C3 cells = assay: Testosterone ELISA after androstenedione stimulation; assay type: cell-based, human; settings: Homo sapiens, HCT-116; for inhibition at 10 µM: read-out: Inhibition of testosterone levels
Experimental: (§2) Cells were seeded into 96-well plates in hormone-deprived media at appropriate seeding densities [10,000–50,000 cells per well for all lines except HCC1500 (100,000 cells per well; 11β-PGF2α ELISA)] to reach approximately 70% confluency at the time of sampling and were left to settle for 24 h at 37°C and 5% CO2. Inhibitors were added to the plates at single or multiple concentrations for 1 h prior to administration of equimolar (28 nM) concentrations of PGD2 (11β-PGF2α ELISA), androstenedione (testosterone ELISA), or estrone (17β-estradiol ELISA). The plates were returned to the incubator for a further 24 h before cell supernatant was removed for analysis of 11β-PGF2α, testosterone, or 17β-estradiol by ELISA as per manufacturer’s instructions (11β-PGF2α and testosterone ELISA, Cayman Chemical Company; 17β-estradiol ELISA, Oxford Biomedical Research), and cells were fixed for sulforhodamine B analysis as described below. Each ELISA plate was read at a wavelength of 405 nm (11β-PGF2α and testosterone) or 650 nM (17β-estradiol) on a SpectraMax M2 microplate reader (Molecular Devices) and quantitated against a standard curve generated in hormone-deprived culture media. Cross-reactivity to PGD2, androstenedione, or estrone was accounted for by adding these to cell-free wells of each ELISA plate.
(§3) Since AKR1C3 has been implicated in the development of CRPC because of its ability to produce testosterone intratumorally from circulating androstenedione, we determined testosterone concentrations in the prostate cancer cell lines and known high and low AKR1C3-expressing cells after stimulation with androstenedione for 24 h.

NCI-H460 cells = assay: as above; assay type: cell-based, human; settings: Homo sapiens, NCI-H460; 10 μM; 28 nM androstenedione, 24 h; read-out: Inhibition of testosterone levels
Experimental: as §2, §3

LNCaP cells = assay: as above; assay type: cell-based, human; settings: 10 μM; 28 nM androstenedione, 24 h; P < 0.05
Experimental: as §1, with “The plates were returned to the incubator for a further 24 h before cell supernatant was removed for analysis of 11β-PGF2α, testosterone, or 17β-estradiol by ELISA as per manufacturer’s instructions (11β-PGF2α and testosterone ELISA, Cayman Chemical Company; 17β-estradiol ELISA, Oxford Biomedical Research), and cells were fixed for sulforhodamine B analysis as described below.” left out
as §3, with “h. […]” for “h.”

22RV1 cells = assay: PSA concentration after androstenedione stimulation; assay type: cell-based; settings: Homo sapiens, 10 nM androstenedione, 24 h, read-out: Inhibition of PSA formation attributable to androstenedione stimulation
Experimental: (§4) Cells were seeded at 20,000 cells per well (LAPC4, LAPC4 AKR1C3) or 50,000 cells per well (22RV1) into 96-well plates in hormone-deprived media and left to settle for 24 h at 37°C and 5% CO2. […] The plates were returned to the incubator for 24 h, before the cell supernatant was removed and frozen for PSA analysis. Determination of total PSA concentration was carried out at LabPLUS, Auckland City Hospital, by immunoassay on a Cobas® e601 analyzer according to manufacturer’s instructions (Roche).
(§5) Next, PSA expression was determined in the CRPC cell lines that were sensitive to SN33638-mediated inhibition of testosterone (LAPC4 AKR1C3 and 22RV1 with LAPC4 wild-type cells acting as a negative control) as a biomarker of AR activity. […] Androstenedione stimulation promoted PSA production in all three cell lines, with the highest PSA levels observed in LAPC4 AKR1C3 cells.

LAPC4 AKR1C3 cells = assay: as above; assay type: cell-based; settings: Homo sapiens, LAPC4, 24 h, read-out: Inhibition of PSA formation attributable to androstenedione stimulation
Experimental: as §4, §5

MCF7 cells = assay: Cell proliferation (sulforhodamine B), 5 days; assay type: cell-based, human
Experimental: (§6) Cells were seeded into 96-well plates in hormone-deprived media at appropriate seeding densities (5000–20,000 cells per well) to reach approximately 70% confluency at the time of sampling and left to settle for 48 h at 37°C and 5% CO2. […] The plates were returned to the incubator for 5 days before fixing in 10% trichloroacetic acid (Merck Millipore) at 4°C for 1 h and staining with 0.4% sulforhodamine B (Sigma-Aldrich) in 1% acetic acid for 30 min in the dark at room temperature. Plates were washed in 1% acetic acid, dried, and incubated with unbuffered Tris base (10 mM; Serva) for 30 min on a plate shaker in the dark to solubilize the stain. The plates were read on a BioTek EL808 microplate reader at an absorbance of 490 nm with a reference wavelength of 450 nm.
Finally, we investigated whether inhibiting AKR1C3-dependent testosterone or 17β-estradiol production could prevent androstenedione- or estrone-stimulated cell proliferation in CRPC or ER-positive breast cancer cells.
(§7) Neither androstenedione nor estrone-stimulated cell proliferation in the HCT116 AKR1C3 and wild-type cell lines (data not shown).

T47D AKR1C3 cells = assay: Cell proliferation (sulforhodamine B), 5 days; assay type: cell-based, human; settings: 10 μM, estrone up to 10 nM
Experimental: as §6, §7

T47D cells = assay: Cell proliferation (sulforhodamine B), 5 days; assay type: cell-based, human; settings: 10 μM, estrone up to 10 nM
Experimental: as §6, §7

AKR1C3 [2] = system: AKR1C3; set-up: method as in PMID 23454516; settings: cited from earlier work

## CC1CCCCN1S(=O)(=O)c1ccc(N2CCCC2=O)cc1 (centres unmarked) [SN33638]
AKR1C3 [1]
  Reduction of 11β-PGF2α levels: ≥ 80%
HCT116 AKR1C3 cells; 10 μM alone, Figure 4D
  inhibition at 10 µM: 73.7%
HCT116 AKR1C3 cells; 10 μM, 28 nM androstenedione, 24 h, Figure 4B
  inhibition at 10 µM: 74.2%
HCT116 AKR1C3 cells; HCT116 AKR1C3 cells, 28 nM androstenedione, 24 h, read-out: EC50 of inhibition of testosterone production
  EC50: 7.4 ± 1.2 nM
NCI-H460 cells
  inhibition at 10 µM: 54.1%
LNCaP cells
  Effect on testosterone levels: significantly increased
22RV1 cells
  inhibition at 10 µM: 44.9%
LAPC4 AKR1C3 cells; 1 nM androstenedione
  inhibition at 10 µM: 90.8%
LAPC4 AKR1C3 cells; 10 nM androstenedione
  inhibition at 10 µM: 57.4%
MCF7 cells; 10 μM
  Reduction of unstimulated cell proliferation: 7.3%
MCF7 cells; Homo sapiens, MCF7, 120 h, 10 nM estrone, read-out: Inhibition of estrone-stimulated cell proliferation
  inhibition at 10 µM: 14.9%
T47D AKR1C3 cells
  Effect on estrone-stimulated cell proliferation: not significantly inhibited
T47D cells
  Effect on estrone-stimulated cell proliferation: not significantly inhibited
AKR1C3 [2]
  Potency against AKR1C3: low nanomolar
